Assay results from the Kinase Knowledgebase extract (Sharma et al. 2016).

Target: CDK2 (human) (UniProt P24941)
Assay: Enzyme Assay

Row | Ki [nM] | SMILES
1 | < 50 | CCNCc1cncc(-c2ccc3[nH]nc(-c4ncc(C(=O)NCCOC)[nH]4)c3c2)c1C
2 | < 50 | CCNCc1cncc(-c2ccc3[nH]nc(-c4ncc(C(=O)N5CCCC5)[nH]4)c3c2)c1C
3 | < 50 | CCNCc1cncc(-c2ccc3[nH]nc(-c4nc(-c5ccc(OC)cc5)c[nH]4)c3c2)c1C
4 | < 50 | CCNCc1cncc(-c2ccc3[nH]nc(-c4ncc(C(=O)NCCN(C)C)[nH]4)c3c2)c1C
5 | < 50 | CCNCc1cncc(-c2ccc3[nH]nc(-c4ncc(C(=O)NC5C6CC7CC(C6)CC5C7)[nH]4)c3c2)c1C (stereo not drawn)
6 | < 50 | CCNCc1cncc(-c2ccc3[nH]nc(-c4nc(C(=O)NCc5cccnc5)c[nH]4)c3c2)c1C
7 | < 50 | C[S+](C)[O-].Cc1c(N)cncc1-c1ccc2[nH]nc(-c3nc(-c4ccccc4)c[nH]3)c2c1
8 | < 50 | CCNCc1cncc(-c2ccc3[nH]nc(-c4ncc[nH]4)c3c2)c1CC
9 | < 50 | Cc1c(CNC(C)C)cncc1-c1ccc2[nH]nc(-c3ncc[nH]3)c2c1
10 | < 50 | CCNCc1cncc(-c2ccc3[nH]nc(-c4nc(C(=O)NC5CCCCC5)c[nH]4)c3c2)c1C
11 | < 50 | CCNCc1cncc(-c2ccc3[nH]nc(-c4ncc(C(=O)N5CC=C(c6ccccc6)CC5)[nH]4)c3c2)c1C
12 | < 50 | CCNCc1cncc(-c2ccc3[nH]nc(-c4ncc(C(=O)N5C[C@@H](C)O[C@@H](C)C5)[nH]4)c3c2)c1C
13 | < 50 | CCNCc1cncc(-c2ccc3[nH]nc(-c4ncc(C(=O)N(CC)CC)[nH]4)c3c2)c1C
14 | < 50 | CCNCc1cncc(-c2ccc3[nH]nc(-c4nc(-c5ccc(C(F)(F)F)cc5)c(C)[nH]4)c3c2)c1C
15 | < 50 | CCNCc1cncc(-c2ccc3[nH]nc(-c4nc(-c5ccc(Cl)cc5)c(C)[nH]4)c3c2)c1C
16 | < 50 | Cc1c(N)cncc1-c1ccc2[nH]nc(-c3nc4c([nH]3)CCCC4)c2c1
17 | < 50 | CCCCCC.CCNCc1cncc(-c2ccc3[nH]nc(-c4nc(CC)c(C)[nH]4)c3c2)c1C
18 | < 50 | CCNCc1cncc(-c2ccc3[nH]nc(-c4nc(-c5ccccc5)c[nH]4)c3c2)c1C
19 | < 50 | CCNCc1cncc(-c2ccc3[nH]nc(-c4ncc(C(=O)N5CCCC(Cc6ncccn6)CC5)[nH]4)c3c2)c1C (stereo not drawn)
20 | < 50 | c1ncc(-c2n[nH]c3ccc(-c4cncc5[nH]ccc45)cc23)[nH]1
21 | < 50 | CCNCc1cncc(-c2ccc3[nH]nc(-c4nc5c([nH]4)CCCC5)c3c2)c1CC
22 | < 50 | CC(C)(C)O.Cc1c(N)cncc1-c1ccc2[nH]nc(-c3nc(-c4ccc(F)cc4)c[nH]3)c2c1
23 | < 50 | CCCCCC.CCNCc1cncc(-c2ccc3[nH]nc(-c4nc(C)c(C)[nH]4)c3c2)c1C
24 | < 50 | CCNCc1cncc(-c2ccc3[nH]nc(-c4nc(-c5ccc(F)cc5)c[nH]4)c3c2)c1C

Second part, the molecule before the results:

Row | SMILES | Ki [nM]
25 | CCNCc1cncc(-c2ccc3[nH]nc(-c4ncc(C(=O)NCc5ccccn5)[nH]4)c3c2)c1C | < 50
26 | CCNCc1cncc(-c2ccc3[nH]nc(-c4ncc(C(=O)NCCC5=CCCCC5)[nH]4)c3c2)c1C | < 50
27 | CCNCc1cncc(-c2ccc3[nH]nc(-c4ncc(C(=O)N[C@H]5CCCCNC5=O)[nH]4)c3c2)c1C | < 50
28 | Cc1c(N)cncc1-c1ccc2[nH]nc(-c3nc(-c4cccc(F)c4)c[nH]3)c2c1 | < 50
29 | CNCc1cncc(-c2ccc3[nH]nc(-c4nc(C)c[nH]4)c3c2)c1C | < 50
30 | CCNCc1cncc(-c2ccc3[nH]nc(-c4ncc(C(=O)N5CCC6CCCCC6C5)[nH]4)c3c2)c1C (stereo not drawn) | < 50
31 | CCNCc1cncc(-c2ccc3[nH]nc(-c4ncc(C(=O)N5CCCCC5)[nH]4)c3c2)c1C | < 50
32 | CCNCc1cncc(-c2ccc3[nH]nc(-c4nc(-c5cc(Cl)cc(Cl)c5)c(C)[nH]4)c3c2)c1C | < 50
33 | CCNCc1cncc(-c2ccc3[nH]nc(-c4nc(C)c[nH]4)c3c2)c1C | < 50
34 | CCNCc1cncc(-c2ccc3[nH]nc(-c4ncc[nH]4)c3c2)c1C | < 50
35 | CCNCc1cncc(-c2ccc3[nH]nc(-c4ncc(C(=O)N5CCC(Oc6ccccc6)CC5)[nH]4)c3c2)c1C | < 50
36 | CCNCc1cncc(-c2ccc3[nH]nc(-c4ncc(C(=O)NCC)[nH]4)c3c2)c1C | < 50
37 | CCNCc1cncc(-c2ccc3[nH]nc(-c4ncc(C(=O)N5CCN(c6ccc(F)cc6F)CC5)[nH]4)c3c2)c1C | < 50
38 | CCNCc1cncc(-c2ccc3[nH]nc(-c4nc(-c5cccc(F)c5)c[nH]4)c3c2)c1C | < 50
39 | CCNCc1cncc(-c2ccc3[nH]nc(-c4ncc(C(=O)NC5CCCC5)[nH]4)c3c2)c1C | < 50
40 | CCCc1nc(-c2n[nH]c3ccc(-c4cncc(CNCC)c4C)cc23)[nH]c1C | < 50
41 | CCNCc1cncc(-c2ccc3[nH]nc(-c4ncc(C(=O)N[C@H]5CCc6ccccc65)[nH]4)c3c2)c1C | < 50
42 | CCNCc1cncc(-c2ccc3[nH]nc(-c4ncc(C(=O)N5CCN(Cc6ccccc6)CC5)[nH]4)c3c2)c1C | < 50
43 | CCNCc1cncc(-c2ccc3[nH]nc(-c4nc(-c5ccccc5)c(C)[nH]4)c3c2)c1C | < 50
44 | CCNCc1cncc(-c2ccc3[nH]nc(-c4nc(-c5cccc(OC)c5)c[nH]4)c3c2)c1C | < 50
45 | CCNCc1cncc(-c2ccc3[nH]nc(-c4ncc(C(=O)N5CCN(C)CC5)[nH]4)c3c2)c1C | < 50
46 | CCNCc1cncc(-c2ccc3[nH]nc(-c4nc5c([nH]4)CCCC5)c3c2)c1C | < 50

Row | SMILES | Ki [nM]
47 | CCNCc1cncc(-c2ccc3[nH]nc(-c4ncc(C(=O)N(C)C5CCN(Cc6ccccc6)C5)[nH]4)c3c2)c1C (stereo not drawn) | < 50
48 | CCNCc1cncc(-c2ccc3[nH]nc(-c4ncc(C(=O)N5CCN(CCOC)CC5)[nH]4)c3c2)c1C | < 50
49 | CCNCc1cncc(-c2ccc3[nH]nc(-c4ncc(C(=O)N5CCOCC5)[nH]4)c3c2)c1C | < 50
50 | CCc1nc(-c2n[nH]c3ccc(-c4cncc(N)c4C)cc23)[nH]c1CC | < 50
51 | CCNCc1cncc(-c2ccc3[nH]nc(-c4nc(-c5ccc(OC)c(OC)c5)c[nH]4)c3c2)c1C | < 50
52 | CCNCc1cncc(-c2ccc3[nH]nc(-c4nc(CC(C)C)c(C)[nH]4)c3c2)c1C | < 50
53 | CCNCc1cncc(-c2ccc3[nH]nc(-c4nc(-c5ccccc5)c(C(=O)NCc5ccccc5)[nH]4)c3c2)c1C | < 50
54 | CCNCc1cncc(-c2ccc3[nH]nc(-c4ncc(C(=O)N5Cc6ccccc6C5)[nH]4)c3c2)c1C | < 50
55 | CCNCc1cncc(-c2ccc3[nH]nc(-c4cnc[nH]4)c3c2)c1C | < 50
56 | CCNCc1cncc(-c2ccc3[nH]nc(-c4cc(C)n[nH]4)c3c2)c1C | < 50
57 | CCNCc1cncc(-c2ccc3[nH]nc(-c4ncc(C(=O)N5CCN(c6ccccc6)CC5)[nH]4)c3c2)c1C | < 50
58 | CCNCc1cncc(-c2ccc3[nH]nc(-c4nc(CC)c(CC)[nH]4)c3c2)c1C | < 50
59 | CCNCc1cncc(-c2ccc3[nH]nc(-c4ncc(C(=O)N5CCCCCC5)[nH]4)c3c2)c1C | < 50
60 | CNCc1cncc(-c2ccc3[nH]nc(-c4ncc[nH]4)c3c2)c1C | < 50
61 | c1c[nH]c(-c2n[nH]c3ccc(-c4cncc5[nH]ccc45)cc23)n1 | < 50
62 | CCNCc1cncc(-c2ccc3[nH]nc(-c4ncc(C(=O)N5CCN(Cc6ccccn6)CC5)[nH]4)c3c2)c1C | < 50
63 | CCNCc1cncc(-c2ccc3[nH]nc(-c4ncc(C(=O)NC(C)C)[nH]4)c3c2)c1C | < 50
64 | CCNCc1cncc(-c2ccc3[nH]nc(-c4ncc(C(=O)N5CCC(Cc6ncccn6)CC5)[nH]4)c3c2)c1C | < 50
65 | CCNCc1cncc(-c2ccc3[nH]nc(-c4ncc(C(=O)N(CCN(C)C)Cc5ccccc5)[nH]4)c3c2)c1C | < 50
66 | CCNCc1cncc(-c2ccc3[nH]nc(-c4nc(-c5cccc(C(F)(F)F)c5)c(C)[nH]4)c3c2)c1C | < 50
67 | CCNCc1cncc(-c2ccc3[nH]nc(-c4ncc(C(=O)N[C@@H]5CCc6ccccc65)[nH]4)c3c2)c1C | < 50
68 | C1CCCCC1.COCc1cncc(-c2ccc3[nH]nc(-c4nc5c([nH]4)CCCC5)c3c2)c1C | < 50
